In ChEMBL document CHEMBL1201861, “Genomics of Drug Sensitity in Cancer screening data, Wellcome Trust Sanger Institute” one finds IC50 data, which are given here for eight compounds.

What all share (assay): cells
In one experiment the test system is COR-L88. The format is functional, cell-based. The settings on record: Homo sapiens.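 Also: growth inhibition of COR-L88 cells, read out with a cell viability assay.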
Another experiment relates to HCC2218. The format is functional, cell-based. As to conditions: Homo sapiens.
The next experiment deals with HCE-T. The format is functional, cell-based, Homo sapiens. The settings on record: Homo sapiens, HCE-T.
For another experiment, the system named is HD-MY-Z. The format is functional, cell-based, Homo sapiens. As to conditions: Homo sapiens, HD-MY-Z.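 Also: growth inhibition of HD-MY-Z cells, read out with a cell viability assay.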
The subject of another experiment is HDLM-2. The class given is functional, cell-based. As to conditions: Homo sapiens.
The next experiment deals with HEL. The format is functional, cell-based, Homo sapiens. The settings on record: Homo sapiens, HEL.
The subject of another experiment is K5. The class given is functional, cell-based, Homo sapiens. The settings on record: Homo sapiens, K5.
The next experiment deals with LS-1034. The format is functional, cell-based, Homo sapiens. As to conditions: Homo sapiens, LS-1034.
Another experiment relates to MOLT-16. The format is functional, cell-based. As to conditions: Homo sapiens.
For another experiment, the system named is MOLT-4. The class given is functional, cell-based. As to conditions: Homo sapiens.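 Also: growth inhibition of MOLT-4 cells, determined with a cell viability readout.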
A further experiment has as its system Mo. The class given is functional, cell-based. As to conditions: Homo sapiens.
The subject of a further experiment is NCI-H1155. The class given is functional, cell-based. The settings on record: Homo sapiens.
A further experiment has as its system NCI-H720. The format is functional, cell-based. As to conditions: Homo sapiens.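 Also: growth inhibition of human NCI-H720 cells determined by a cell viability assay.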
In a further experiment the test system is RPMI-8226. The format is functional, cell-based. As to conditions: Homo sapiens.
The test system of a further experiment is SF-126. The format is functional, cell-based, Homo sapiens. As to conditions: Homo sapiens, SF-126.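 Also: growth inhibition of human SF126 cells, read out with a cell viability assay.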
The test system of another experiment is SK-LMS-1. The format is functional, cell-based, Homo sapiens. The settings on record: Homo sapiens, SK-LMS-1.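 Also: growth inhibition of human SK-LMS-1 cells, read out with a cell viability assay.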
In another experiment the test system is SK-MEL-1. The class given is functional, cell-based. The settings on record: Homo sapiens.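 Also: growth inhibition of human SK-MEL-1 cells, read out by a cell viability assay.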
The next experiment relates to SW 962. The format is functional, cell-based, Homo sapiens. As to conditions: Homo sapiens, SW 962.
For the next experiment, the system named is BB65-RCC. The format is functional, cell-based, Homo sapiens. As to conditions: Homo sapiens, BB65-RCC.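 Also: growth inhibition of the cell line, measured with a cell viability assay.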
For another experiment, the system named is Becker. The format is functional, cell-based, Homo sapiens. As to conditions: Homo sapiens, Becker.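 Also: growth inhibition of Becker cells, read out with a cell viability assay.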
In the next experiment the test system is C8166. The class given is functional, cell-based. The settings on record: Homo sapiens.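 Also: growth inhibition of human C8166 cells measured by a cell viability assay.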
The test system of another experiment is TE-5. The class given is functional, cell-based, Homo sapiens. The settings on record: Homo sapiens, TE-5.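 Also: inhibition of cell growth, read out by a cell viability assay.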
The test system of the next experiment is COLO-684. The class given is functional, cell-based. The settings on record: Homo sapiens.
The test system of a further experiment is IA-LM. The format is functional, cell-based, Homo sapiens. As to conditions: Homo sapiens, IA-LM.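 Also: cell viability assay measuring growth inhibition of human IA-LM cells.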

A value given as a limit tells only on which side of the number the result lay.

Description for BB65-RCC: SANGER: Inhibition of human BB65-RCC cell growth in a cell viability assay.
Description for Becker: SANGER: Inhibition of human Becker cell growth in a cell viability assay.
Description for C8166: SANGER: Inhibition of human C8166 cell growth in a cell viability assay.
Description for COLO-684: SANGER: Inhibition of human COLO-684 cell growth in a cell viability assay.
Description for COR-L88: SANGER: Inhibition of human COR-L88 cell growth in a cell viability assay.
Description for HCC2218: SANGER: Inhibition of human HCC2218 cell growth in a cell viability assay.
Description for HCE-T: SANGER: Inhibition of human HCE-T cell growth in a cell viability assay.
Description for HD-MY-Z: SANGER: Inhibition of human HD-MY-Z cell growth in a cell viability assay.
Description for HDLM-2: SANGER: Inhibition of human HDLM-2 cell growth in a cell viability assay.
Description for HEL: SANGER: Inhibition of human HEL cell growth in a cell viability assay.
Description for IA-LM: SANGER: Inhibition of human IA-LM cell growth in a cell viability assay.
Description for LS-1034: SANGER: Inhibition of human LS-1034 cell growth in a cell viability assay.
Description for MOLT-16: SANGER: Inhibition of human MOLT-16 cell growth in a cell viability assay.
Description for MOLT-4: SANGER: Inhibition of human MOLT-4 cell growth in a cell viability assay.
Description for NCI-H1155: SANGER: Inhibition of human NCI-H1155 cell growth in a cell viability assay.
Description for NCI-H720: SANGER: Inhibition of human NCI-H720 cell growth in a cell viability assay.
Description for RPMI-8226: SANGER: Inhibition of human RPMI-8226 cell growth in a cell viability assay.
Description for SF-126: SANGER: Inhibition of human SF126 cell growth in a cell viability assay.
Description for SK-LMS-1: SANGER: Inhibition of human SK-LMS-1 cell growth in a cell viability assay.
Description for SK-MEL-1: SANGER: Inhibition of human SK-MEL-1 cell growth in a cell viability assay.
Description for SW 962: SANGER: Inhibition of human SW962 cell growth in a cell viability assay.
Description for TE-5: SANGER: Inhibition of human TE-5 cell growth in a cell viability assay.

For orientation: IC50 means the concentration needed to halve the response being measured. In the case of `CC1=C2C[C@H]3[C@@H](CC=C4C[C@@H](O)CC[C@@]43C)[C@@H]2CC[C@]12O[C@@H]1C[C@H](C)CN[C@H]1[C@H]2C` [CYCLOPAMINE], the IC50 in the experiment on COR-L88, with HCC2218, with HCE-T, with HD-MY-Z, with HDLM-2 and in the experiment with HEL was above 16 µM in each case. Besides, the IC50 in the experiment on K5, in the experiment on LS-1034, with MOLT-16, with MOLT-4, in the experiment with Mo and with NCI-H1155 was above 16 µM in each case. Besides, the IC50 with NCI-H720, in the experiment with RPMI-8226, in the experiment with SF-126, in the experiment on SK-LMS-1, with SK-MEL-1 and in the experiment on SW 962 was above 16 µM throughout. Also, the IC50 with BB65-RCC, in the experiment on Becker, in the experiment on C8166, in the experiment on TE-5 and in the experiment on COLO-684 was above 16 µM in each case.
Consider `CNC(=O)c1cc(Oc2ccc(NC(=O)Nc3ccc(Cl)c(C(F)(F)F)c3)cc2)ccn1` [SORAFENIB], for which the half-maximal inhibitory concentration (IC50) with COR-L88 is above 4 µM; in the experiment on HCC2218 it was 3.12 µM; in the experiment on HCE-T, above 4 µM; with HD-MY-Z it was above 4 µM; with HDLM-2, above 4 µM; in the experiment with HEL it was above 4 µM. Further, the IC50 with K5, with LS-1034, in the experiment with MOLT-16, in the experiment on MOLT-4, in the experiment on Mo and in the experiment on NCI-H1155 was above 4 µM each time. Also, the IC50 is above 4 µM in the experiment with NCI-H720; above 4 µM with RPMI-8226; 1.64 µM with SF-126; above 4 µM with SK-LMS-1; above 4 µM in the experiment with SK-MEL-1; above 4 µM in the experiment with SW 962. Moreover, the concentration for half-maximal inhibition (IC50) in the experiment with BB65-RCC was 0.471 µM; with Becker, above 4 µM; with C8166 it was above 4 µM; in the experiment on TE-5, 3.13 µM; in the experiment on COLO-684, above 4 µM.
As for `Cc1cc(Nc2cc(N3CCN(C)CC3)nc(Sc3ccc(NC(=O)C4CC4)cc3)n2)n[nH]1` [TOZASERTIB], the IC50 in the experiment with COR-L88, with HCC2218, with HCE-T, in the experiment with HD-MY-Z, with HDLM-2 and with HEL was above 2 µM in each case. In addition, the IC50 with IA-LM is above 2 µM; in the experiment with K5, above 2 µM; in the experiment on LS-1034, above 2 µM; in the experiment with MOLT-16 it was 1.35 µM; in the experiment with MOLT-4, 0.233 µM; with Mo it was above 2 µM. The IC50 was above 2 µM in the experiment with NCI-H1155; above 2 µM in the experiment on NCI-H720; above 2 µM in the experiment on RPMI-8226; 0.948 µM in the experiment with SF-126; 1.22 µM in the experiment with SK-LMS-1; above 2 µM in the experiment on SK-MEL-1. Further, the IC50 in the experiment on SW 962 is above 2 µM; in the experiment on BB65-RCC, 1.18 µM; in the experiment on Becker, above 2 µM; with C8166, above 2 µM; with TE-5, above 2 µM; in the experiment on COLO-684, above 2 µM.
As for `CO[C@H]1C[C@@H]2CC[C@@H](C)[C@@](O)(O2)C(=O)C(=O)N2CCCC[C@H]2C(=O)O[C@H]([C@H](C)C[C@@H]2CC[C@@H](O)[C@H](OC)C2)CC(=O)[C@H](C)/C=C(\C)[C@@H](O)[C@@H](OC)C(=O)[C@H](C)C[C@H](C)/C=C/C=C/C=C/1C` [SIROLIMUS], the IC50 with COR-L88 was above 0.1 µM; in the experiment with HCC2218, above 0.1 µM; with HCE-T, above 0.1 µM; with HD-MY-Z it was above 0.1 µM; in the experiment with HDLM-2 it was above 0.1 µM; in the experiment on HEL it was 0.0498 µM. In addition, the IC50 with IA-LM was 0.0681 µM; with K5 it was above 0.1 µM; with LS-1034, above 0.1 µM; in the experiment with MOLT-16 it was above 0.1 µM; in the experiment with MOLT-4 it was 0.0968 µM; with Mo, above 0.1 µM. Moreover, the IC50 with NCI-H1155 is above 0.1 µM; with NCI-H720, 0.0254 µM; in the experiment on RPMI-8226 it was 0.00119 µM; in the experiment with SF-126, 0.0304 µM; in the experiment with SK-LMS-1 it was 0.00249 µM; in the experiment on SK-MEL-1, above 0.1 µM. Moreover, the IC50 with SW 962 is above 0.1 µM; in the experiment with BB65-RCC it was above 0.1 µM; in the experiment with Becker, 0.0411 µM; in the experiment with C8166, above 0.1 µM; in the experiment with TE-5, above 0.1 µM; in the experiment with COLO-684 it was 0.0398 µM.
For `O=C(/C=C/c1ccccc1)NC(NC(=S)Nc1cccc2cccnc12)C(Cl)(Cl)Cl` (stereo unspecified) [SALUBRINAL], the IC50 in the experiment on COR-L88 was above 16 µM; with HCC2218 it was above 16 µM; in the experiment with HCE-T it was above 16 µM; in the experiment with HD-MY-Z, above 16 µM; with HDLM-2, above 16 µM; with HEL, 10.6 µM. For the same compound, the IC50 in the experiment on K5 was above 16 µM; in the experiment on LS-1034, above 16 µM; with MOLT-16, 14 µM; with MOLT-4, above 16 µM; in the experiment on Mo, above 16 µM; in the experiment on NCI-H1155 it was above 16 µM. Further, the IC50 is 7.57 µM in the experiment on NCI-H720; above 16 µM in the experiment on RPMI-8226; above 16 µM with SF-126; above 16 µM in the experiment on SK-LMS-1; above 16 µM with SK-MEL-1; above 16 µM with SW 962. Moreover, the concentration for half-maximal inhibition (IC50) with BB65-RCC is above 16 µM; in the experiment with Becker, 5.79 µM; with C8166, above 16 µM; in the experiment on TE-5 it was above 16 µM; with COLO-684, above 16 µM.
With `CS(=O)(=O)CCNCc1ccc(-c2ccc3ncnc(Nc4ccc(OCc5cccc(F)c5)c(Cl)c4)c3c2)o1` [LAPATINIB], the IC50 in the experiment with COR-L88 was above 2 µM; in the experiment on HCC2218, 0.0533 µM; with HCE-T it was above 2 µM; in the experiment on HD-MY-Z it was above 2 µM; in the experiment on HDLM-2, above 2 µM; in the experiment on HEL, above 2 µM. Moreover, the half-inhibitory concentration (IC50) in the experiment on K5, in the experiment with LS-1034, in the experiment with MOLT-16, in the experiment with MOLT-4, in the experiment with Mo and with NCI-H1155 was above 2 µM each time. Also, the IC50 in the experiment with NCI-H720, in the experiment on RPMI-8226, with SF-126, with SK-LMS-1, with SK-MEL-1 and in the experiment on SW 962 was above 2 µM in each case. Besides, the IC50 in the experiment with BB65-RCC, in the experiment on Becker, with C8166, with TE-5 and in the experiment on COLO-684 was above 2 µM in each case.
On to `C=C1C(=O)O[C@@H]2C3O[C@]3(C)CC/C=C(\C)CC[C@@H]12` (stereo partly specified), for which the 50% inhibitory concentration (IC50) in the experiment on COR-L88 was above 5 µM; with HCC2218, above 5 µM; with HCE-T, above 5 µM; with HD-MY-Z, above 5 µM; in the experiment with HDLM-2 it was above 5 µM; in the experiment with HEL it was 3.18 µM. The IC50 in the experiment with K5, with LS-1034, with MOLT-16, in the experiment with MOLT-4, in the experiment on Mo and in the experiment on NCI-H1155 was above 5 µM each time. The IC50 in the experiment with NCI-H720, in the experiment on RPMI-8226, with SF-126, with SK-LMS-1, in the experiment with SK-MEL-1 and in the experiment on SW 962 was above 5 µM each time. The IC50 in the experiment with BB65-RCC, with Becker, in the experiment on C8166, with TE-5 and in the experiment on COLO-684 was above 5 µM in each case.
Take `CCc1nc(N)nc(N)c1-c1ccc(Cl)cc1` [PYRIMETHAMINE]: the IC50 in the experiment with COR-L88 is above 20 µM; with HCC2218, above 20 µM; in the experiment on HCE-T, above 20 µM; in the experiment on HD-MY-Z, 11.9 µM; with HDLM-2 it was above 20 µM; with HEL, 2.67 µM. Besides, the IC50 with K5 is above 20 µM; in the experiment with LS-1034 it was 18.3 µM; in the experiment with MOLT-16 it was 15.1 µM; in the experiment with MOLT-4, 5.43 µM; in the experiment with Mo, above 20 µM; in the experiment with NCI-H1155, above 20 µM. Further, the IC50 in the experiment on NCI-H720, with RPMI-8226, in the experiment on SF-126, in the experiment with SK-LMS-1, with SK-MEL-1 and in the experiment with SW 962 was above 20 µM throughout. Moreover, the IC50 is above 20 µM with BB65-RCC; above 20 µM in the experiment with Becker; above 20 µM in the experiment with C8166; above 20 µM with TE-5; 6.76 µM in the experiment with COLO-684.
